Results taken from US20110130397A1, “PYRROLINONE COMPOUNDS AS INHIBITORS OF BACTERIAL PEPTIDYL TRNA HYDROLASE AND USES THEREOF” (priority 2006, published 2011).

How the values were obtained:
[1] = Cytotoxicity (CellTiter 96 Aqueous Non-Radioactive Cell Proliferation Assay); assay type: cell-based; settings: human, Huh7 cells
Protocol: Novel antibacterial peptidyl tRNA hydrolase inhibitors were identified using the MIC assay (inhibition ranged from 32-100%). The inhibitors were also bacteria specific, as evidenced by the low cytotoxicity observed for the human Huh7 cells (FIG. 4). Cytotoxicity was determined according to manufacturer's directions (CellTiter 96 Aqueous Non-Radioactive Cell Proliferation Assay, Promega).
Further data for representative compounds is set forth in Table 1 (MIC and cytotoxicity). Compounds were tested against S. aureus (ATCC 29213) and E. coli (BAS849—permeable) in the MIC assays. Certain compounds were also tested against other bacteria, including S. epidermis (ATCC 12228), E. faecium (ATCC 49624), and E. faecalis (ATCC 29212). Cytotoxicity was determined using Hu7 cells and Hep G2 cells. The MIC and cytotoxicity assays were performed as described above.

Structure (SMILES) | CC50 [1] [µM] | melting point [°C]
Cc1cnc(N2C(=O)C(O)=C(C(=O)c3cc4ccccc4o3)C2c2ccc(OCc3ccccc3)cc2)s1 (stereo not shown) [Compound 50] | 82 | 241 to 243
Cc1coc(N2C(=O)C(O)=C(C(=O)c3cc4ccccc4o3)C2c2ccc(OCc3ccccc3)cc2)n1 (stereo not shown) [Compound 58] | > 94 | 169 to 171
CCCCOc1ccc(C2C(C(=O)c3cc4ccccc4o3)=C(O)C(=O)N2c2nc(C)c(C(C)=O)s2)cc1 (stereo not shown) [Compound 57] | > 91 | 186 to 188
O=C(C1=C(O)C(=O)N(c2nccs2)C1c1ccc(OCc2ccccc2)cc1)c1cc2ccccc2o1 (stereo not shown) [Compound 53] | > 98 | 193 to 195
CC(=O)c1sc(N2C(=O)C(O)=C(C(=O)c3cc4ccccc4o3)C2c2ccc(Oc3ccccc3)cc2)nc1C (stereo not shown) [Compound 56] | > 984 | 251 to 253
O=C(C1=C(O)C(=O)N(c2nc3ccccc3s2)C1c1ccc(OCc2ccccc2)cc1)c1cc2ccccc2o1 (stereo not shown) [Compound 51] | 82.3 | 213 to 214
O=C(C1=C(O)C(=O)N(c2nncs2)C1c1ccc(OCc2ccccc2)cc1)c1cc2ccccc2o1 (stereo not shown) [Compound 52] | > 90 | 150 to 154
CC(=O)c1sc(N2C(=O)C(O)=C(C(=O)c3cc4ccccc4o3)C2c2ccccc2)nc1C (stereo not shown) [Compound 54] | 78.5 | 205 to 208
CC(=O)c1sc(N2C(=O)C(O)=C(C(=O)c3cc4ccccc4o3)C2c2ccc(-c3ccccc3)cc2)nc1C (stereo not shown) [Compound 55] | 42.9 | 226 to 228
COC(=O)c1sc(N2C(=O)C(O)=C(C(=O)c3ccc(F)cc3)C2c2ccc(F)cc2)nc1C (stereo not shown) [Compound 31] | 46.5 | –
CCc1ccc2nc(N3C(=O)C(O)=C(C(=O)c4ccccc4)C3c3cccs3)sc2c1 (stereo not shown) [Compound 118] | 10.8 | –
COc1ccc(C(=O)C2=C(O)C(=O)N(c3nccs3)C2c2ccc(Cl)cc2)cc1C (stereo not shown) [Compound 44] | 51.5 | –
CCOc1cc(C2C(C(=O)c3cc4ccccc4o3)=C(O)C(=O)N2c2nnc(SCc3cccc4ccccc34)s2)ccc1O (stereo not shown) [Compound 2] | > 79 | –
COc1cc(C2C(C(=O)c3cc4ccccc4o3)=C(O)C(=O)N2c2nc(C)c(C(C)=O)s2)ccc1OCc1ccccc1 (stereo not shown) [Compound 11] | > 84 | –
O=C(C1=C(O)C(=O)N(c2nnc(SCc3ccc(Cl)cc3)s2)C1c1cccc(O)c1)c1cc2ccccc2o1 (stereo not shown) [Compound 12] | > 87 | –
O=C(C1=C(O)C(=O)N(c2nnc(SCc3ccc(F)cc3)s2)C1c1cccc(O)c1)c1cc2ccccc2o1 (stereo not shown) [Compound 15] | > 89 | –
Cc1ccc2nc(N3C(=O)C(O)=C(C(=O)c4cc5ccccc5o4)C3c3cccc(O)c3)sc2c1 (stereo not shown) [Compound 8] | 80.1 | –
CCOC(=O)c1sc(N2C(=O)C(O)=C(C(=O)c3ccc(C)cc3)C2c2cccs2)nc1C (stereo not shown) [Compound 28] | 89.1 | –
CCCCCOc1ccc(C2C(C(=O)c3cc4ccccc4o3)=C(O)C(=O)N2c2nc(C)c(C(C)=O)s2)cc1OC (stereo not shown) [Compound 14] | 74.2 | –
CCOc1cc(C2C(C(=O)c3cc4ccccc4o3)=C(O)C(=O)N2c2nc3c(C)cc(C)cc3s2)ccc1O (stereo not shown) [Compound 4] | 53.4 | –
CC(=O)c1sc(N2C(=O)C(O)=C(C(=O)c3cc4ccccc4o3)C2c2ccc(OCc3ccccc3)cc2)nc1C (stereo not shown) [Compound 10] | > 89 | 195 to 197
